In one test the test system is P-388. Briefly: Inhibition of cell growth by counting cells, P-388. Particulars: Mus musculus, P388, 72 h; three days of incubation; read-out: IC50 (molar) P-388. Type of test: cell-based, mouse. The procedure: (§1) 1°.—Inhibition of Cell Growth by Counting Cells.
(§2) This form of the assay employs 24 well multidishes of 16 mm diameter (Bergeron, 1984; Schroeder, 1981). The tumor cell lines employed are: P-388 (ATCC CCL 46), suspension culture of a lymphoid neoplasm from a DBA/2 mouse; A-549 (ATCC CCL 185), monolayer culture of a human lung carcinoma; HT-29 (ATCC HTB-38), monolayer culture of a human colon carcinoma; MEL-28 (ATCC HTB-72), monolayer culture of a human melanoma and DU-145 (ATCC HTB-81), monolayer culture of a human prostate carcinoma.
(§3) Cells were maintained, in logarithmic phase of growth in Eagle's Minimum Essential Medium, with Earle's Balanced Salts, with non-essential amino acids, with 2.0 mM L-Glutamine, without sodium bicarbonate (EMEM/neaa), supplemented with 10% Fetal Calf Serum (FCS), 10^−2 M. sodium bicarbonate and 0.1 U/l penicillin G+0.1 g/l streptomycin sulfate. For the experiments, cells are harvested from subconfluent cultures using trypsin and resuspended in fresh medium before plating.
(§4) P-388 cells were seeded into 16 mm diameter wells at 1×10^4 cells per well in 1 ml aliquots of EMEM 5% FCS containing different concentrations of the sample to be tested. A separate set of cultures without drug was seeded as control of growth, to ensure that cells remained in exponential phase of growth. All determinations are carrying out in duplicate.
(§5) For quantifying the activity, after the incubation time, cells are trypsinized and counted in a Coulter Counter ZM. All counts (net cells per well), represent the average of duplicate wells. % G, percent of growth relative to cultures without drug. The results of these assays are used to generate dose-response curves from which more precise IC50 values are determined (sample concentration which produces 50% cell growth inhibition).
(§6) Obtained results may predict the usefulness of a certain drug as a potential cancer treatment. For this technique, compounds which show IC50 values smaller than 1 μg/ml are selected to continue with further studies. IC50's data allow to predict that not only could a drug be cystostatic, but also it could have a potential in terms of tumor reduction.

Another test deals with A-549. The test can be described thus: Inhibition of cell growth by counting cells, A-549. Type of test: cell-based, human. Particulars: Homo sapiens, A549, 72 h; three days of incubation; read-out: IC50 (molar) A-549. A digest of the protocol: (§7)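 Monolayer lines were plated at 1×10^4 cells per well with compound in medium containing 5% FCS. After a 3-day incubation at 37° C, crystal violet staining gave an approximate IC50, and cell counting of duplicate wells gave the dose-response IC50.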

In another test the test system is HT-29. The test can be described thus: Inhibition of cell growth by counting cells, HT-29. In kind it is cell-based, human. Particulars: Homo sapiens, HT-29, 72 h; three days of incubation; read-out: IC50 (molar) HT-29. A digest of the protocol: as §7
The subject of the next test is MEL-28. Briefly: Inhibition of cell growth by counting cells, MEL-28. Type of test: cell-based, human. Particulars: Homo sapiens, SK-MEL-28, 72 h; three days of incubation; read-out: IC50 (molar) MEL-28. The method, then:
as §1, §2, §3
as §4, with “A-549, HT-29, MEL-28 and DU-145” for “P-388”, “duplicate. After three days of incubation at 37° C., 5% CO2 in a 98% humid atmosphere cells were stained with 0.1% crystal violet. An approximately IC50 was determined by comparing the growth in wells with drug to the growth in wells control.” for “duplicate.”
as §5, §6

Another test relates to DU-145. Briefly: Inhibition of cell growth by counting cells, DU-145. Type of test: cell-based, human. As to conditions: Homo sapiens, DU-145, 72 h, read-out: IC50 (molar) DU-145. The procedure:
as §1, §2, §3
as §4, with “A-549, HT-29, MEL-28 and DU-145” for “P-388”, “duplicate. After three days of incubation at 37° C., 5% CO2 in a 98% humid atmosphere cells were stained with 0.1% crystal violet. An approximately IC50 was determined by comparing the growth in wells with drug to the growth in wells control.” for “duplicate.”
as §5, §6

Where two headings read alike, the source gives them in different places.

Data on six compounds can be found in patent US7759345B2, “Antitumoral derivatives of ET-743” (priority 2001, dated 2010).

In general, IC50 refers to the concentration that inhibits the measured activity by half. Regarding `COc1cc2c(cc1OC(=O)C(F)(F)F)CCN[C@]21CS[C@@H]2c3c(OC(C)=O)c(C)c4c(c3[C@H](COC1=O)N1C2[C@H]2c3c(cc(C)c(OC)c3O)C[C@@H]([C@@H]1C#N)N2C)OCO4` (stereo partly drawn) [Compound 3], the IC50 with P-388, in the test with A-549, in the test on HT-29, in the test with MEL-28 and in the test with DU-145 (three days of incubation) was 1.15 nM throughout.
For `COc1cc2c(cc1OC(=O)OC(C)(C)C)CCN[C@]21CS[C@@H]2c3c(OC(C)=O)c(C)c4c(c3[C@H](COC1=O)N1C2[C@H]2c3c(cc(C)c(OC)c3O)C[C@@H]([C@@H]1C#N)N2C)OCO4` (stereo partly drawn) [Compound 4], the IC50 with P-388, in the test on A-549, in the test on HT-29, in the test with MEL-28 and in the test with DU-145 (three days of incubation) was 0.115 nM throughout.
Take `COc1cc2c(cc1OC(=O)OC(C)(C)C)CCN[C@]21CS[C@@H]2c3c(OC(C)=O)c(C)c4c(c3[C@H](COC1=O)N1C2[C@H]2c3c(cc(C)c(OC)c3OC(=O)OC(C)(C)C)C[C@@H]([C@@H]1C#N)N2C)OCO4` (stereo partly drawn) [Compound 5]: the IC50 in the test on P-388, in the test with A-549, in the test on HT-29, in the test on MEL-28 and with DU-145 (three days of incubation) was 0.515 nM each time.
For the compound `CCCC(=O)Oc1cc2c(cc1OC)[C@@]1(CS[C@@H]3c4c(OC(C)=O)c(C)c5c(c4[C@H](COC1=O)N1C3[C@H]3c4c(cc(C)c(OC)c4O)C[C@@H]([C@@H]1C#N)N3C)OCO5)NCC2` (stereo partly drawn) [Compound 7], the IC50 came to 0.119 nM in the test with P-388; 0.119 nM in the test on A-549; 0.595 nM with HT-29; 0.119 nM in the test on MEL-28; 0.595 nM with DU-145 (three days of incubation).
For `COc1cc2c(cc1OC(=O)/C=C/c1ccccc1)CCN[C@]21CS[C@@H]2c3c(OC(C)=O)c(C)c4c(c3[C@H](COC1=O)N1C2[C@H]2c3c(cc(C)c(OC)c3O)C[C@@H]([C@@H]1C#N)N2C)OCO4` (stereo partly drawn) [Compound 8], the IC50 in the test on P-388 amounted to 0.111 nM; in the test on A-549, 0.111 nM; in the test with HT-29, 0.556 nM; in the test on MEL-28, 0.111 nM; with DU-145, 0.556 nM.
For `CCCC(=O)Oc1cc2c(cc1OC)[C@@]1(CS[C@@H]3c4c(OC(C)=O)c(C)c5c(c4[C@H](COC1=O)N1C3[C@H]3c4c(cc(C)c(OC)c4OC(=O)CCC)C[C@@H]([C@@H]1C#N)N3C)OCO5)NCC2` (stereo partly drawn) [Compound 9], the IC50 in the test with P-388, in the test on A-549, in the test on HT-29, in the test with MEL-28 and with DU-145 (three days of incubation) was 0.11 nM each time.
